# Where “and” joins values, the source holds several entries; their conditions need not be identical. Equal entries are not always repeated. Where two headings read alike, the source gives them in different places.
# Experiments:
# [1] = tested on: E. coli DH5αZ1 + pZE24-tet(X7); experiment: Microbroth dilution antibiotic susceptibility test (MIC); format: cell-based; details: Escherichia coli, 20 h
# Method: (§1) For high expression, 1 mM IPTG fully relieves repression by LacI[44] thus only IPTG was used in whole-cell tests. Chemically-competent E. coli DH5αZ1 (Expressys) was transformed with these pZE24 constructs by heat shock. Minimum inhibitory concentrations (MICs) were measured as per Clinical and Laboratory Standards Institute (CLSI) guidelines. Substrates and inhibitors were dissolved in DMSO (20 mg/mL) then diluted to working concentrations in cation-adjusted Mueller-Hinton II broth supplemented with 50 μg/mL kanamycin (Supplementary Data 2). Antibiotic susceptibility testing panels were prepared in 96-well flat-bottom microplates (Corning) by two-fold serial dilution of the antibiotic of interest (Supplementary Data 3). […] Liquid cultures of each strain were grown to exponential phase then diluted to a standard concentration (OD600 = 0.0015, which is equivalent to double ~5 × 10^5 CFU/mL) and inoculated into each panel at a 1:1 ratio. […] Each strain-antibiotic/inhibitor combination was tested in triplicate, along with no-drug and no-cell controls. Inoculated panels were sealed with Breathe-Easy membranes (Sigma-Aldrich) and incubated at 37 °C for 20 h. MICs were scored by absorbance measurements at 600 nm (OD600) using the Synergy H1 microplate reader (Biotek Instruments, Inc).
# [2] = tested on: E. coli DH5αZ1 + pZE24 (empty); experiment: as above; format: cell-based; details: Escherichia coli, 20 h, drug alone
# Method: as §1
# [3] = tested on: E. coli DH5αZ1 + pZE24-tet(X6); experiment: as above; format: cell-based; details: Escherichia coli
# Method: as §1
# Tet(X6) = Tet(X6) (Proteus genomosp. 6, UniProt A0A6I7DAX3); details: for Sigmoidal curve fit, best-fit Kprime / Sigmoidal curve fit, best-fit Vmax / Sigmoidal curve fit, best-fit h / Sigmoidal curve fit, best-fit Khalf: allosteric sigmoidal model, Supplementary Data 1; for Sigmoidal curve fit, best-fit Khalf: [Sub] in μM; for Michaelis-menten nonlinear fit, best-fit Kcat / Michaelis-menten nonlinear fit, best-fit Vmax: supplementary source data; for Michaelis-menten nonlinear fit, best-fit Vmax: Tet(X6) 0.4 µM
# Sequence of Tet(X6) (A0A6I7DAX3 entry or part of it): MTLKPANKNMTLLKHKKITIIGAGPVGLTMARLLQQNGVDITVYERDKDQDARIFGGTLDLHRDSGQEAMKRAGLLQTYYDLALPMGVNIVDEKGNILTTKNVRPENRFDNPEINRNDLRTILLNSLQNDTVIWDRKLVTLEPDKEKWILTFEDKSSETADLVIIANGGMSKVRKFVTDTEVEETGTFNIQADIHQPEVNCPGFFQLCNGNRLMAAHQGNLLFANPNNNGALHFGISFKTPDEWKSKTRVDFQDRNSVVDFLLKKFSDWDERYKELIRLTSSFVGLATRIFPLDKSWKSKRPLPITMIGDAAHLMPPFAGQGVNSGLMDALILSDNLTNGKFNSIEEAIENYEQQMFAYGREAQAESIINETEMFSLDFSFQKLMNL
# Method: All experiments were prepared open to air in non-degassed buffer solutions at room temperature. […] Initial enzyme velocities were determined by linear regression using Agilent Cary WinUV Software over the linear range of the reaction (typically between 0 to 1 min), plotted against the concentration of the substrate, and fitted to the Michaelis–Menten or allosteric sigmoidal nonlinear regression equations using GraphPad Prism 6.
# Tet(X2) = details: surface-localized single point mutation; cited from earlier work
# [4] = tested on: Cc1c2c(c(O)c3c(O)cccc13)C(=O)[C@]1(O)C(=O)C(C(N)=O)=C(O)[C@@H](N(C)C)[C@@H]1C2; experiment: purified protein, by the assay type; details: other: compound as substrate of Tet(X6), Michaelis-Menten fit, pH 8.5
# [5] = tested on: CN(C)[C@@H]1C(O)=C(C(N)=O)C(=O)[C@@]2(O)C(O)=C3C(=O)c4c(O)c(NC(=O)CN5CCCC5)cc(F)c4C[C@H]3C[C@@H]12; experiment: purified protein, by the assay type; details: pH 8.5
# [6] = tested on: [H][C@@]12Cc3c(N(C)C)cc(CNCC(C)(C)C)c(O)c3C(=O)C1=C(O)[C@]1(O)C(=O)C(C(N)=O)=C(O)[C@@H](N(C)C)[C@]1([H])C2; experiment: purified protein, by the assay type; details: pH 8.5
# [7] = tested on: CN(C)[C@@H]1C(O)=C(C(N)=O)C(=O)[C@@]2(O)C(O)=C3C(=O)c4c(O)cccc4[C@@](C)(O)[C@H]3C[C@@H]12; experiment: purified protein, by the assay type; details: other: compound as substrate of Tet(X6), Michaelis-Menten fit, pH 8.5
# [8] = tested on: CN(C)c1cc(NC(=O)CNC(C)(C)C)c(O)c2c1C[C@H]1C[C@H]3[C@H](N(C)C)C(O)=C(C(N)=O)C(=O)[C@@]3(O)C(O)=C1C2=O; experiment: purified protein, by the assay type; details: pH 8.5
# [9] = [Sub] 3.8961 μM, trials 1-3, absorbance 400 nm (440 nm for aTC)
# [10] = [Sub] 6.16883 μM, trials 1-3, absorbance 400 nm (440 nm for aTC)
# [11] = [Sub] 8.11688 μM, trials 1-3, absorbance 400 nm (440 nm for aTC)
# [12] = [Sub] 10.0649 μM, trials 1-3, absorbance 400 nm
# [13] = [Sub] 29.8701 μM, trials 1-3, absorbance 400 nm (440 nm for aTC)
# [14] = [Sub] 1.96581 μM, trials 1-3, absorbance 400 nm
# [15] = [Sub] 3.93162 μM, trials 1-3, absorbance 400 nm
# [16] = [Sub] 5.89744 μM, trials 1-3, absorbance 400 nm
# [17] = [Sub] 7.86325 μM, trials 1-3, absorbance 400 nm
# [18] = [Sub] 9.82906 μM, trials 1-3, absorbance 400 nm
# [19] = [Sub] 20.641 μM, trials 1-3, absorbance 400 nm
# [20] = [Sub] 30.4701 μM, trials 1-3, absorbance 400 nm
# [21] = other: compound as substrate of Tet(X6), Michaelis-Menten fit
# [22] = other: supplementary source data, [Sub] in μM
compound,measurement,setting,value
"CN(C)[C@@H]1C(O)=C(C(N)=O)C(=O)[C@@]2(O)C(O)=C3C(=O)c4c(O)c(NC(=O)CN5CCCC5)cc(F)c4C[C@H]3C[C@@H]12 [ERA, eravacycline]",MIC,[1],4 µg/mL
same,MIC,[2],0.25 µg/mL
same,MIC,[3]; 20 h,8 µg/mL
same,Slope (initial velocity of substrate degradation),Tet(X6); [9],0.0062 and 0.0046 and 0.0039
same,Slope (initial velocity of substrate degradation),Tet(X6); [10],0.0169 and 0.0106 and 0.0133
same,Slope (initial velocity of substrate degradation),Tet(X6); [11],0.0312 and 0.0317 and 0.0293
same,Slope (initial velocity of substrate degradation),Tet(X6); [12],0.0442 and 0.0406 and 0.047
same,Slope (initial velocity of substrate degradation),"Tet(X6); [Sub] 20.1299 μM, trials 1-3, absorbance 400 nm (440 nm for aTC)",0.0511 and 0.0571 and 0.0722
same,Slope (initial velocity of substrate degradation),Tet(X6); [13],0.0798 and 0.0764 and 0.0969
same,Slope (initial velocity of substrate degradation),"Tet(X6); [Sub] 64.9351 μM, trials 1-2, absorbance 400 nm",0.1162 and 0.1096
same,"Sigmoidal curve fit, best-fit Kprime",Tet(X6),84.21
same,"Sigmoidal curve fit, best-fit Vmax",Tet(X6),0.1315
same,"Sigmoidal curve fit, best-fit h",Tet(X6),1.474
same,"Sigmoidal curve fit, best-fit Khalf",Tet(X6),20.22
same,"Michaelis-menten nonlinear fit, best-fit Kcat",Tet(X6),0.5027
same,"Michaelis-menten nonlinear fit, best-fit Vmax",Tet(X6),0.2011
"CN(C)[C@@H]1C(O)=C(C(N)=O)C(=O)[C@@]2(O)C(O)=C3C(=O)c4c(O)cccc4[C@@](C)(O)[C@H]3C[C@@H]12 [TET, tetracycline]",MIC,[1],32 µg/mL
same,MIC,[2],1 µg/mL
same,Slope (initial velocity of substrate degradation),Tet(X6); [14],0.0375 and 0.04014 and 0.02364
same,Slope (initial velocity of substrate degradation),Tet(X6); [15],0.04215 and 0.04584 and 0.0387
same,Slope (initial velocity of substrate degradation),Tet(X6); [16],0.05933 and 0.04704 and 0.05922
same,Slope (initial velocity of substrate degradation),Tet(X6); [17],0.06246 and 0.0528 and 0.05754
same,Slope (initial velocity of substrate degradation),Tet(X6); [18],0.05855 and 0.06072 and 0.05694
same,Slope (initial velocity of substrate degradation),Tet(X6); [19],0.07878 and 0.08328 and 0.07938
same,Slope (initial velocity of substrate degradation),Tet(X6); [20],0.0879 and 0.09378 and 0.09744
same,"Michaelis-menten nonlinear fit, best-fit Kcat",Tet(X6),0.2636
same,"Michaelis-menten nonlinear fit, best-fit Vmax",Tet(X6),0.1054 and 0.1047
CN(C)c1ccc(O)c2c1C[C@H]1C[C@H]3[C@H](N(C)C)C(O)=C(C(N)=O)C(=O)[C@@]3(O)C(O)=C1C2=O [minocycline],reduction of apparent Km by point mutation Thr280Ala in Tet(X2),Tet(X2),two-fold
"C[C@H]1c2cccc(O)c2C(=O)C2=C(O)[C@]3(O)C(=O)C(C(N)=O)=C(O)[C@@H](N(C)C)[C@@H]3[C@@H](O)[C@@H]21 [DOX, doxycycline]",MIC,[1],16 µg/mL
same,MIC,[2],1 µg/mL
same,MIC,[3]; 20 h,32 µg/mL
"CN(C)[C@@H]1C(O)=C(C(N)=O)C(=O)[C@@]2(O)C(O)=C3C(=O)c4c(O)ccc(Cl)c4[C@@](C)(O)[C@H]3C[C@@H]12 [CTC, chlortetracycline]",MIC,[1],32 µg/mL
same,MIC,[2],2 µg/mL
same,MIC,[3],128 µg/mL
"CN(C)c1cc(NC(=O)CNC(C)(C)C)c(O)c2c1C[C@H]1C[C@H]3[C@H](N(C)C)C(O)=C(C(N)=O)C(=O)[C@@]3(O)C(O)=C1C2=O [TIG, tigecycline]",MIC,[1],2 µg/mL
same,MIC,[2],0.5 µg/mL
same,MIC,[3]; 20 h,4 µg/mL
same,Slope (initial velocity of substrate degradation),Tet(X6); [14],0.00897 and 0.01087 and 0.008562
same,Slope (initial velocity of substrate degradation),Tet(X6); [15],0.01529 and 0.0186 and 0.0147
same,Slope (initial velocity of substrate degradation),Tet(X6); [16],0.02792 and 0.01914 and 0.0183
same,Slope (initial velocity of substrate degradation),Tet(X6); [17],0.03155 and 0.02526 and 0.02718
same,Slope (initial velocity of substrate degradation),Tet(X6); [18],0.02741 and 0.02394 and 0.02598
same,Slope (initial velocity of substrate degradation),Tet(X6); [19],0.03075 and 0.05034 and 0.0363
same,Slope (initial velocity of substrate degradation),Tet(X6); [20],0.05374 and 0.04632 and 0.03822
same,"Michaelis-menten nonlinear fit, best-fit Kcat",Tet(X6),0.1574
same,"Michaelis-menten nonlinear fit, best-fit Vmax",Tet(X6),0.06296 and 0.06154
"CN(C)c1cc(CNCC(C)(C)C)c(O)c2c1C[C@H]1C[C@H]3[C@H](N(C)C)C(O)=C(C(N)=O)C(=O)[C@@]3(O)C(O)=C1C2=O [OMA, omadacycline]",MIC,[1],16 µg/mL
same,MIC,[2],2 µg/mL
same,MIC,[3]; 20 h,64 µg/mL
same,Slope (initial velocity of substrate degradation),"Tet(X6); [Sub] 1.94805 μM, trials 1-3, absorbance 400 nm (440 nm for aTC)",0.0061 and 0.0058 and 0.0045
same,Slope (initial velocity of substrate degradation),Tet(X6); [9],0.0076
same,Slope (initial velocity of substrate degradation),Tet(X6); [10],0.0203 and 0.0178 and 0.0171
same,Slope (initial velocity of substrate degradation),Tet(X6); [11],0.0286 and 0.0269 and 0.0241
same,Slope (initial velocity of substrate degradation),Tet(X6); [12],0.0336 and 0.0293 and 0.0307
same,Slope (initial velocity of substrate degradation),Tet(X6); [13],0.0474 and 0.044 and 0.0515
same,"Sigmoidal curve fit, best-fit Kprime",Tet(X6),61.85
same,"Sigmoidal curve fit, best-fit Vmax",Tet(X6),0.05144
same,"Sigmoidal curve fit, best-fit h",Tet(X6),1.97
same,"Sigmoidal curve fit, best-fit Khalf",Tet(X6),8.114
same,"Michaelis-menten nonlinear fit, best-fit Kcat",Tet(X6),0.1969
same,"Michaelis-menten nonlinear fit, best-fit Vmax",Tet(X6),0.07875
Tet(X6) (Proteus columbae),Km,[4],6 µM
same,kcat/Km,[4],200 ± 50 M⁻¹ s⁻¹
same,Km,[5]; [21],47 µM
same,kcat,[5]; [21],0.0083 ± 0.0017 s⁻¹
same,kcat/Km,[5]; [21],183 ± 67 M⁻¹ s⁻¹
same,Km,[5]; [22],46.6 µM
same,Km,[6]; [21],18 µM
same,kcat,[6]; [21],0.00333 ± 0.00033 s⁻¹
same,kcat/Km,[6]; [21],183 ± 50 M⁻¹ s⁻¹
same,Km,[6]; [22],18.4 µM
same,kcat,[7],0.00433 ± 0.00017 s⁻¹
same,Km,[8]; [21],12 µM
same,kcat,[8]; [21],0.00267 ± 0.00033 s⁻¹
same,kcat/Km,[8]; [21],217 ± 67 M⁻¹ s⁻¹
same,Km,[8]; [22],11.8 µM and 11.1 µM
